Experiments:
[1] = system: Rat; assay: in vivo
Method: (§1) Acute toxicity test was conducted on rats aged four weeks to which 5-(3-ethoxy-4-pentyloxyphenyl)-2,4-thiazolidinedione was administered.

[2] = in vivo; conditions: rat, in vivo
Method: as §1

[3] = system: mice and rats; assay: Acute toxicity test, symptoms and findings common to mice and rats; format: in vivo; conditions: for life period in the death cases: both animals
Method: as §1
The following symptoms in common with the mice and rats were observed.

[4] = system: Mouse; assay: Acute toxicity test, mouse; format: in vivo; conditions: mice
[5] = Acute toxicity test, mouse; format: in vivo; conditions: mouse, in vivo
[6] = ip, intraperitoneal injection, female
[7] = ip, intraperitoneal injection, male
[8] = po, oral administration, female
[9] = sc, subcutaneous injection, female
[10] = sc, subcutaneous injection, male

SMILES: CCCCCOc1ccc(C2SC(=O)NC2=O)cc1OCC (centres unmarked) [5-(3-ethoxy-4-pentyloxyphenyl)-2,4-thiazolidinedione]
- Observation on dissection ([1]; rat, in vivo, po): atrophy of the thymus gland was further seen
- Observation on dissection, survival cases ([1]; rats, subcutaneous administration, injection area): formed with a cyst of hen's egg size in the injection area, and the cyst was found to contain an extremely small amount of unabsorbed medicament and a small amount of extravasation liquid
- LD50 [2, 6]: 520 mg/kg
- LD50 [2, 7]: 490 mg/kg
- LD50 [2, 8]: 4330 mg/kg
- LD50 ([2]; po, oral administration, male): 5300 mg/kg
- LD50 [2, 9]: 3300 mg/kg
- LD50 [2, 10]: 3210 mg/kg
- General symptoms ([3]; in vivo, sc): 3 or 5 hours after the administration, a slight suppression of spontaneous motility was found, and then, lowering in tonus of the abdominal muscle, walking disorder, lacrimation and respiratory depression were observed
- life period in the death cases ([3]; intraperitoneal administration): 2 to 24 h
- Observation on dissection, death cases ([3]; mice and rats): congestion of the lung was observed in both mice and rats
- life period in the death cases ([3]; oral administration, major cases): 2 to 24 h
- life period in the death cases ([3]; oral administration, minor cases): 48 to 96 h
- life period in the death cases ([3]; subcutaneous administration): from the night of the administration day to three days after the administration
- General symptoms, additional in mice ([4]; intraperitoneal injection): projection of the eyeball, a secretion in the margin of palpebra, fall of the body surface temperature and a slight degree of tremor in a few cases were seen
- General symptoms, additional in mice ([4]; oral administration): lacrimation, a secretion in the margin of palpebra and fall of the body surface temperature were additionally observed
- General symptoms, additional in mice ([4]; subcutaneous injection, next day after administration): projection of the eyeball, a secretion in the margin of palpebra and fall of the body surface temperature were additionally seen
- LD50 [5, 6]: 500 mg/kg
- LD50 [5, 7]: 560 mg/kg
- LD50 [5, 8]: 2150 mg/kg
- LD50 ([5]; po, oral administration, male): 2320 mg/kg
- LD50 [5, 9]: 2270 mg/kg
- LD50 [5, 10]: 1720 mg/kg

Reference: US4602026A, “Ophthalmic topical agent for remedy of diseases of iris and ciliary body” (Senju Pharmaceutical Co., Ltd., priority 1984, dated 1986)
